The values that follow come from US20080287549A1, “METHODS AND MATERIALS FOR CONTROLLING RODENT POPULATIONS” (priority 2007, published 2008).

For data set [1], the system named is Serum testosterone. Description: Serum testosterone in male rats after 7 days of treatment (direct RIA). The format is in vivo. Particulars: 7 consecutive days; for Effect on serum testosterone levels compared to the control group: 0.2-20 mg/kg; for Average Decrease in Serum Testosterone Level (%): pre- vs post-treatment. The procedure: (§1) Male rats were given increasing doses (control=0 mg/kg, low=0.2 mg/kg, medium=2 mg/kg and high=20 mg/kg) of clomiphene, trans-clomiphene or cis-clomiphene for 7 consecutive days. Treatment was followed by a 7-day washout period. Serum testosterone levels and body weight were tested pre-treatment and post-treatment. Serum testosterone levels were analyzed by direct radioimmunoassay (RIA).
(§2) There were significant and unexpected decreases in serum testosterone and body weight among all treatment groups. […] There was a significant loss in both body weight and total serum testosterone with clomiphene that was dose-dependent.

A short description of data set [2]: Body weight in male rats after 7 days of treatment. The format is in vivo. Particulars: 7 consecutive days; for Effect on body weight compared to the control group: 0.2-20 mg/kg; for Average Loss of Body Weight: pre- vs post-treatment. As for the experimental part:
as §1, §2

Data set [3] relates to FSH, LH, testosterone. The following applies: cited from earlier work.
For data set [4] the following is noted: cited from earlier work.
For data set [5] the following is noted: Ernst et al.; cited from earlier work.

Consider `CCN(CC)CCOc1ccc(C(=C(Cl)c2ccccc2)c2ccccc2)cc1` [Clomiphene, clomiphene], for which the “Effect on serum testosterone levels compared to the control group” value in data set [1] was “significantly and statistically lowered serum testosterone levels”. For the same molecule, the “Average Decrease in Serum Testosterone Level (%)” value in data set [1] (high=20 mg/kg) was 89.7%; in data set [1] (low=0.2 mg/kg), 65.2%; in data set [1] (medium=2 mg/kg), 83.5%. Besides, in data set [2], the “Effect on body weight compared to the control group” value was “caused a loss in body weight”. Also, the “Average Loss of Body Weight” value in data set [2] (high=20 mg/kg) worked out at 69 g; in data set [2] (low=0.2 mg/kg), 24 g; in data set [2] (medium=2 mg/kg), 41 g. The “LH, FSH, and testosterone” value in data set [3] (after 2 months of treatment (Guay et al.)) was “increase”. The “free and total testosterone” value in data set [3] (men after treatment (Tenover et al.)) is “increases”. Also, the “FSH, LH” value in data set [3] (young and old men after treatment (Tenover et al.)) is “increases”.

Regarding `CCN(CC)CCOc1ccc(/C(=C(/Cl)c2ccccc2)c2ccccc2)cc1` [Cis-clomiphene, cis-clomiphene], the “Effect on serum testosterone levels compared to the control group” value in data set [1] was “significantly and statistically lowered serum testosterone levels”. Besides, the entries for the “Average Decrease in Serum Testosterone Level (%)” value in data set [1] (low=0.2 mg/kg) and in data set [1] (medium=2 mg/kg) were 68.1% and 99.3%, respectively. In addition, the “Effect on body weight compared to the control group” value in data set [2] is given as “caused a loss in body weight”. The “Average Loss of Body Weight” value was 75 g in data set [2] (high=20 mg/kg), 32 g in data set [2] (low=0.2 mg/kg) and 54 g in data set [2] (medium=2 mg/kg). Also, the “time for which significant blood level is detectable” value in data set [4] (following a single dose of clomiphene citrate) is “in excess of one month”. Also, the in vivo clearance result in data set [4] (in vivo) is “clears slowly”. Besides, in data set [5], the “estrogenic / antiestrogenic activity” value was “more potent and more estrogenic form”.
